Measured values as given in patent US10821142B2, “Cancer treatment and diagnosis” (priority 2015, dated 2020).

Columns and labels:
Assay type in all cases: cell-based, human
[1] = tested on: cGAS expression; test: cGAS expression (qPCR) in cGAS negative colon cancer cells after epigenetic drug treatment; conditions: LS174T, SW480, SW1417, SW48, HT116; 5 days; rescued: SW480 and HT116
Procedure: FIGS. 5A-5F show STING activation and cytosolic DNA pathway in colon cancer cells were mostly defective: A series of colon cancer cells as well as normal cell controls were either mock transfected or transfected with dsDNA90 at 3 μg/ml for 3 hours, and were analyzed by Immunofluorescence Microscopy for STING translocation (FIG. 5A), IRF3 translocation (FIG. 5B), and p65 translocation (FIG. 5C). (FIG. 5D) Cells, same as above, were either mock transfected or transfected with dsDNA90 at 3 μg/ml for indicated time periods followed by immunoblot analysis for STING phosphorylation as well as phosphorylation of TBK1, IRF3 and p65. β-actin was used as loading control. (FIG. 5E) Cells, same as above, were analyzed by qPCR for cGAS expression. (FIG. 5F) Cells that have undetectable level of cGAS in E were treated with 1 μM 5-azacytidine for […], followed by qPCR analysis for cGAS expression. […] Error bars indicate s.d.
FIGS. 15A-15E show cGAS expression is suppressed in many human colon cancer cell lines and can be partially recapitulated through DNA demethylation. […]
To complement the above study, the expression of cGAS in the colon cancer cell-lines was examined. […] Given these findings, examination of the expression of cGAS in 47 human colon cancers at various stages of tumorigenesis was analyzed (FIG. 13C). Expression of cGAS was low to undetectable in approximately 30% of cells analyzed. […]

[2] = tested on: STING-dependent dsDNA signaling; test: STING signal activation by dsDNA90 in colon cancer cells after demethylation; conditions: for phosphorylation of TBK1 and IRF3 after dsDNA: 5AZADC 5 days then dsDNA90 3 μg/ml
[3] = tested on: STING and cGAS expression; test: STING and cGAS expression in melanoma cells after 5AZADC (qPCR, immunoblot, RNA FISH); conditions: 5 days
Procedure: (§1) FIGS. 30A-30G show DNA demethylation partially recapitulated STING and cGAS expression in human melanoma cell lines. FIG. 30A, qPCR analysis of cGAS expression in indicated human melanoma cells mock treated or treated with 1 μM […] (5AZADC) for 5 days. FIG. 30B, Immunoblot analysis of STING in indicated human melanoma cells treated same as above. FIG. 30C, RNA FISH analysis of STING and cGAS in cells (same as above) treated with 5AZADC same as above. Representative images are shown at 1260×. Bar size, 400 nm. qPCR analysis of IFNB (FIG. 30D) and CXCL10 (FIG. 30E) in cells (same as above) treated with 5AZADC followed by dsDNA transfection at 3 μg/ml dsDNA90 for 3 hours. Immunofluorescence Microscopy analysis of IRF3 translocation (FIG. 30F) and STING translocation (FIG. 30G) in indicated cells treated same as in FIG. 30D. Representative images are shown at 1260×. Bar size, 500 nm.
In view of this, it was examined whether STING or cGAS expression was suppressed by epigenetic processes, such as by hypermethylation of the promoter regions (20, 21). Indeed, databank analysis indicated the presence of considerable CpG islands within the STING and cGAS promoter region. As such, melanoma cells lacking either STING or cGAS expression were treated with the de-methylating agent 5-Aza-2′-deoxycytidine (5AZADC) for 5 days and evaluated recapitulation of STING or cGAS expression. […] Therefore DNA hypermethylation is involved in silencing STING or cGAS expression in some melanoma cells (A375 and MeWo). However it is not yet clear why expression levels of STING are muted in the remainder melanoma cells (G361, SK-MEL-5). Other epigenetic modifications such as histone modifications or other transcription regulator factors such as miRNA could be involved in suppressing STING and/or cGAS expression (Jin et al., 2013, Yarbrough et al., 2014). To determine if reconstitution of STING/cGAS expression rescued STING-dependent dsDNA signaling, IFNB and CXCL10 induction was examined in 5AZADC treated melanoma cells following dsDNA stimulation. […] Thus, demethylating agents may be able to partially rescue STING-dependent innate immune gene induction in select melanoma cells.
Equal amounts of proteins were resolved on sodium dodecyl sulfate (SDS)-Polyacrylamide gels and then transferred to polyvinylidene fluoride (PVDF) membranes (Millipore). After blocking with 5% Blocking Reagent, membranes were incubated with various primary antibodies (and appropriate secondary antibodies). The image was resolved using an enhanced chemiluminescence system ECL (Thermo Scientific) and detected by autoradiography (Kodak). Antibodies: rabbit polyclonal antibody against STING was developed in our laboratory as described previously in Ishikawa et al, 2008; other antibodies were obtained from following sources: β-actin (Sigma Aldrich), p-IRF3 (Cell Signaling), IRF3 (Santa Cruz Biotechnology), p-p65 (Cell Signaling), p65 (Cell Signaling), p-TBK1 (Cell Signaling), TBK1 (Abcam), cGAS (Cell Signaling).
Total RNA was reverse-transcribed using QuantiTect Reverse Transcription Kit (Qiagen). Real-time PCR was performed with the TaqMan gene Expression Assay (Applied Biosystems).
STING and cGAS RNA probed was custom designed by ACD and RNA in situ Hybridization was performed using RNAscope® Multiplex Fluorescent Reagent Kit for cultured cells and 2-plex RNAscope® Reagent Kit for FFPE cells and tissue following the manufacturer's instruction.

[4] = tested on: STING-dependent dsDNA signaling; test: IFNB and CXCL10 induction by dsDNA in 5AZADC treated melanoma cells
Procedure: as §1
In view of this, it was examined whether STING or cGAS expression was suppressed by epigenetic processes, such as by hypermethylation of the promoter regions (20, 21). Indeed, databank analysis indicated the presence of considerable CpG islands within the STING and cGAS promoter region. As such, melanoma cells lacking either STING or cGAS expression were treated with the de-methylating agent 5-Aza-2′-deoxycytidine (5AZADC) for 5 days and evaluated recapitulation of STING or cGAS expression. […] Therefore DNA hypermethylation is involved in silencing STING or cGAS expression in some melanoma cells (A375 and MeWo). However it is not yet clear why expression levels of STING are muted in the remainder melanoma cells (G361, SK-MEL-5). Other epigenetic modifications such as histone modifications or other transcription regulator factors such as miRNA could be involved in suppressing STING and/or cGAS expression (Jin et al., 2013, Yarbrough et al., 2014). […]
Total RNA was reverse-transcribed using QuantiTect Reverse Transcription Kit (Qiagen). […]

In the case of `Nc1ncn([C@H]2C[C@H](O)[C@@H](CO)O2)c(=O)n1` [5AZADC, 5-Aza-2′-deoxycytidine], the “cells in which cGAS expression was rescued” value [1] is reported as 2 of the 5, the “expression of type I IFN and IL-1β after dsDNA” value ([2]; 5AZADC treated SW480 and HT116, dsDNA90 3 μg/ml for 3 hours) is reported as “modest expression of type I IFN and IL-1β” and the “phosphorylation of TBK1 and IRF3 after dsDNA” value ([2]; LS174T (cGAS not rescued)) is reported as “not LS174T cells regained phosphorylation of TBK1 and IRF3”. The “phosphorylation of TBK1 and IRF3 after dsDNA” value ([2]; SW480, HT116 (cGAS rescued)) was “regained phosphorylation of TBK1 and IRF3”, the cGAS expression ([3]; A375 cells) was “cGAS expression was recovered” and the STING expression ([3]; G361 and SK-MEL-5 cells) was “STING remained absent”. The STING expression ([3]; MeWo cells, immunoblot and RNA FISH) was “STING expression was restored”, the cGAS expression ([3]; SK-MEL-5 cells) was “partially restored” and the cGAS expression ([3]; SK-MEL-24 cells) was “did not seem to affect cGAS expression level”. The “STING function following dsDNA stimulation” value ([4]; G361 or SK-MEL-5 cells) was “no STING function was observed”, the “IFNB induction following dsDNA stimulation” value ([4]; STING rescued MeWo cells) was “modest expression of IFNB” and the “IFNB and CXCL10 induction following dsDNA stimulation” value ([4]; cGAS rescued A375 cells) was “Induction of both IFNB and CXCL10 production was observed”.
